In patent US6844320B1, “Treatment of preeclampsia, toxemia and preterm labor with combination of progestational agent and a nitric oxide synthase substrate and/or donor” (Board of Regents, The University of Texas System, priority 1993, dated 2005):
Entries after “also recorded” stand apart in the source; their conditions may differ. Marks after values point to notes of the source that are not given here.

Columns and labels:
[1] = tested on: spontaneously contracting uterine strips from rat; test: Relaxation of spontaneously contracting uterine strips in muscle baths; assay type: cell-based
Procedure: The tissues were obtained on days 17-22 (d17, d18, d19 and d22) of gestation, on day 22 (d22 del) during spontaeous delivery (1-3 pups delivered), or on 1 (d1pp) and 2 (d2pp) days postpartum. […] Data are analyzed by repeated measures ANOVA on seven groups. […] Each data point represent mean±S.E.M. The total number of strips studied at each time period was 8-16 from 4-6 animals per group.
Each upstroke from baseline represents a contraction.
In the experiments whose results are shown by the graph of FIG. 2, the tissues were obtained on days 17-22 (d17, d18, d19 and d22) of gestation, on day 22 (d22 del) during spontaneous delivery (1-3 pups delivered), or on 1 (d1pp) and 2 (d2pp) days postpartum. […] Each data point represent mean±SEM. The total number of strips studied at each time period was 8-16 from 4-6 animals per group.

[2] = tested on: L-NAME-induced "preeclampsia" animals; test: L-NAME-induced "preeclampsia": blood pressure and fetal weights; assay type: in vivo; settings: for Effect on L-NAME-induced hypertension (blood pressure): 50 mg L-NAME (FIG. 5); for Effect on fetal weights (pup weights): same L-NAME-treated "preeclamptic" animals (FIG. 6)
pregnant rats [3] = test: L-NAME infusion to pregnant rats: delivery and pups delivered; assay type: in vivo
From the text: The data in Table 2 below show the delivery and the pups delivered of L-NAME infusion to pregnant rats.

pregnant rats [4] = test: L-NAME infusion in pregnant rats: blood pressure; assay type: in vivo, rat
From the text: The data in Table 1 below show the effects of L-NAME infusion on blood pressure (mm Hg) in pregnant rats.

CN(C)c1ccc2nc3ccc(=[N+](C)C)cc-3sc2c1 [methylene blue]
Effect on the relaxation effect of L-arginine (1 mM) ([1]; 0.1 mM, added before the application of L-arginine): abolished
Effect on the relaxation produced by L-arginine ([1]; (FIG. 1E)): reversed

CCC(=O)[C@@]1(C)CC[C@H]2[C@@H]3CCC4=CC(=O)CCC4=C3CC[C@@]21C [R 5020, promegestone]
Effect on L-NAME-induced hypertension (blood pressure) [2]: partinally reduced
Effect on fetal weights (pup weights) [2]: slightly but statistically significant, elevated fetal weights

N=C(N)NCCC[C@H](N)C(=O)O [L-arginine]
Duration of complete inhibition of spontaneous uterine contractions ([1]; 0.1 mM to 10 mM, strips from days 17-22 of gestation, delivery, postpartum (FIG. 2)): dose-dependent
Relaxation of spontaneously contracting tissues ([1]; 1 mM (FIG. 1E), repeatable in the same strip): produced relaxation
Relaxation of spontaneously contracting uterine strips ([1]; 1-3 mM, rat day 18 of gestation (FIG. 1 A, B, E)): substantial relaxations
Relaxation effects during spontaneous delivery at term and postpartum, compared to all other times ([1]; from concentrations of 1 mM (FIG. 2)): significantly (P<0.01) decreased
Effect on L-NAME-induced hypertension (blood pressure) [2]: partially reduced blood pressure
Effect on fetal weights (pup weights) [2]: slightly but statistically significant, elevated fetal weights

COC(=O)[C@@H](N)CCCNC(=N)N[N+](=O)[O-] [L-NAME, N^G-nitro-L-arginine methyl ester]
Day of Delivery (pregnant rats [3]; L-NAME 25 mg/day): 22.4 ± 0.2
Weight of pups (pregnant rats [3]; L-NAME 25 mg/day): 5.05 ± 0.08^b
# of dead pups (pregnant rats [3]; L-NAME 25 mg/day, 9 animals): 5
Day of Delivery (pregnant rats [3]; L-NAME 50 mg/day): 22.7 ± 0.2
Weight of pups (pregnant rats [3]; L-NAME 50 mg/day): 4.56 ± 0.10^c
# of dead pups (pregnant rats [3]; L-NAME 50 mg/day, 10 animals): 10
Effect on the relaxation produced by L-arginine ([1]; 3 mM (FIG. 1B)): reversed
Blood Pressure (pregnant rats [4]; L-NAME 25 mg/day infusion, gestation Day 15): 119 ± 2^a mm Hg
Blood Pressure (pregnant rats [4]; L-NAME 25 mg/day infusion, gestation Day 18): 144 ± 4^b mm Hg
Blood Pressure (pregnant rats [4]; L-NAME 25 mg/day infusion, gestation Day 22): 146 ± 2^b mm Hg
Blood Pressure (pregnant rats [4]; L-NAME 50 mg/day infusion, gestation Day 15): 123 ± 3^a mm Hg
Blood Pressure (pregnant rats [4]; L-NAME 50 mg/day infusion, gestation Day 18): 166 ± 2^c mm Hg
Blood Pressure (pregnant rats [4]; L-NAME 50 mg/day infusion, gestation Day 22): 168 ± 3^c mm Hg

[N]=O [nitric oxide]
Relaxation of spontaneously contracting uterine strips ([1]; 0.1 mM, rat day 18 of gestation (FIG. 1D)): substantial relaxations; also recorded: relaxation
